Data as given in ChEMBL document CHEMBL3137667, “[Drug-induced liver injury; fourteenth updated edition of the bibliographic database of liver injuries and related drugs]” (Gastroenterol Clin Biol, 2004).

Key:
[1] = human
[2] = Times to onset, minimal and maximal, observed in the indexed observations. [column 'DELAI' in source]; details: human
[3] = human; remark: listed apart in the source
[4] = human; remark: listed apart in the source
[5] = human; remark: listed apart in the source
[6] = human; remark: listed apart in the source
[7] = Highest frequency of moderate liver toxicity observed during clinical trials, expressed as a percentage. [column '% BIOL' in source]; details: human
[8] = human, serum
[9] = human, serum; remark: listed apart in the source
[10] = Highest frequency of acute liver toxicity observed during clinical trials, expressed as a percentage. [column '% AIGUE' in source]; details: human
[11] = Proposed mechanism(s) of liver damage. [column 'MEC' in source]; details: human
[12] = human; remark: listed apart in the source
[13] = human; remark: listed apart in the source
[14] = human; remark: listed apart in the source
[15] = human; remark: listed apart in the source
[16] = human, serum, 4383 h
[17] = Presence of at least one case with successful reintroduction. [column 'REINT' in source]; details: human
[18] = Comments (NB not yet translated). [column 'COMMENTAIRES' in source]; details: human
[19] = human; remark: listed apart in the source
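For Hepatotoxicity (association with vascular disease) in this document: count of indexed literature references reporting vascular liver injury in humans, e.g. peliosis hepatitis, hepatic veno-occlusive disease or Budd-Chiari syndrome.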
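For Hepatotoxicity (benign tumour) in this document: value is a count of indexed literature references citing a benign tumour confirmed by histopathology.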
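For Hepatotoxicity (choleostasis) in this document: human cholestatic liver injury, shown by histopathology or by peak ALT or AST elevation over alkaline phosphatase ratio below 2, value counts indexed literature reports.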
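For Hepatotoxicity (chronic liver disease) in this document: chronic liver injury confirmed by histopathology or persistently raised serum aminotransferase activity beyond 6 months, value given as the count of indexed literature references.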
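For Hepatotoxicity (cirrhosis) in this document: value is a count of indexed literature references reporting cirrhosis confirmed by histopathology.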
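For Hepatotoxicity (cytolytic) in this document: human cytolytic liver injury, shown by histopathology or by a ratio above 5 of peak ALT or AST elevation to alkaline phosphatase elevation, value counts indexed references.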
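For Hepatotoxicity (granulomatous hepatitis) in this document: value is a count of indexed literature references reporting granulomatous liver disease confirmed by histopathology.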
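For Hepatotoxicity (malignant tumour) in this document: malignant tumour confirmed by histopathology, value gives the count of indexed literature references reporting it.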
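For Hepatotoxicity (severe hepatitis) in this document: human clinical data: severe hepatitis, meaning potentially life-threatening liver failure or clinically observed cases, the value counts how many indexed literature references report it.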
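For Hepatotoxicity (steatosis) in this document: steatosis confirmed by histopathology, value is the count of indexed references.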

SMILES | Hepatotoxicity (steatosis) [1] | Hepatotoxicity (time to onset) [2] | Hepatotoxicity (cirrhosis) [3] | Hepatotoxicity (association with vascular disease) [4] | Hepatotoxicity (animal toxicity known) [5] | Hepatotoxicity (severe hepatitis) [6] | Hepatotoxicity (moderate) [7] [%] | Hepatotoxicity (acute) [8] | Hepatotoxicity (moderate) [9] | Hepatotoxicity (mechanism) [11] | Hepatotoxicity (granulomatous hepatitis) [12] | Hepatotoxicity (cytolytic) [13] | Hepatotoxicity (benign tumour) [14] | Hepatotoxicity (choleostasis) [15] | Hepatotoxicity (chronic liver disease) [16] | Hepatotoxicity (successful reintroduction) [17] | Hepatotoxicity (comment) [18] | Hepatotoxicity (malignant tumour) [19] | Hepatotoxicity (severe hepatitis) ([6]; Liver) | Hepatotoxicity (moderate) ([7]; Liver) [%] | other results
FC(F)OC(F)(F)C(F)Cl (stereo not given) | 2 | 2 hours - 19 days | 0 | 0 | yes | 10 | 58 | 21 | 15 | Allergic, Reactive metabolite | 1 | 18 | 0 | 7 | 0 | yes | RC/HALOTHANE AC_ANTI-TFA | 0 |  |  | Hepatotoxicity (acute) [10]: 0.7%
O=C(O)COc1ccc(C(=O)c2cccs2)c(Cl)c1Cl | 1 | 2 weeks - 1 year | 4 | 0 | yes |  |  | 18 | 9 | Allergic, Reactive metabolite | 0 | 18 | 0 | 8 | 7 | yes | AC_ANTI-MFR2 | 0 | 9 | 7 | Hepatotoxicity (acute) ([10]; Liver): 0%
CCCCc1oc2ccccc2c1C(=O)c1cc(I)c(OCCN(CC)CC)c(I)c1 [AMIODARONE] | 4 | 1 day - 10 years | 17 | 0 | yes |  |  | 34 | 55 | Allergic, Dose-dependant |  |  | 0 |  | 8 | yes | RC/AJMALINE #S.REYE | 0 | 14 | 55 | Hepatotoxicity (acute) ([10]; Liver): 6%; Hepatotoxicity (granulomatous hepatitis) ([12]; Liver): 2; Hepatotoxicity (cytolytic) ([13]; Liver): 20; Hepatotoxicity (choleostasis) ([15]; Liver): 6
CN(C)CCC=C1c2ccccc2CCc2ccccc21 [AMITRIPTYLINE] | 0 | 1 week - 10 months | 0 | 0 | yes | 6 | 26 | 18 | 11 | Allergic | 0 | 9 | 0 | 12 | 0 | yes | CHOLESTASE_PROLONGEE CHOLANGITE | 0 |  |  | Hepatotoxicity (acute) [10]: 3%
Cn1cnc([N+](=O)[O-])c1Sc1ncnc2nc[nH]c12 [AZATHIOPRINE] | 3 | 2 hours - 8 years | 4 | 27 | yes |  |  | 61 | 40 |  |  |  | 18 |  | 3 | yes | HNR REACTIVATION_HVB CHOLANGITE MVO PELIOSE | 6 | 5 | 28 | Hepatotoxicity (acute) ([10]; Liver): 11.1%; Hepatotoxicity (mechanism) ([11]; Liver): Allergic, Dose-dependant; Hepatotoxicity (granulomatous hepatitis) ([12]; Liver): 2; Hepatotoxicity (cytolytic) ([13]; Liver): 19; Hepatotoxicity (choleostasis) ([15]; Liver): 34
C[C@H](CS)C(=O)N1CCC[C@H]1C(=O)O [CAPTOPRIL] | 1 | 9 days - 26 months | 1 | 0 | yes |  |  | 26 | 5 | Allergic | 0 | 7 | 0 | 16 | 1 | yes | PSEUDOCHOLANGITE RC/ENALAPRIL/LISINOPRIL | 0 | 1 | 4 | Hepatotoxicity (acute) ([10]; Liver): 0.1%
CN1CCN(C2=Nc3cc(Cl)ccc3Nc3ccccc32)CC1 [CLOZAPINE] | 0 | 3 days - 6 weeks | 0 | 0 | A | 1 | 60 |  | 26 | Dose-dependant | 0 | 8 | 0 | 4 | 0 | yes | CHOLANGITE | 0 |  |  | Hepatotoxicity (acute) [10]: 1%
COc1cccc2c1C(=O)c1c(O)c3c(c(O)c1C2=O)C[C@@](O)(C(=O)CO)C[C@@H]3O[C@H]1C[C@H](N)[C@H](O)[C@H](C)O1 [DOXORUBICIN] | 0 | 1 week - 3 weeks | 0 | 5 | yes | 4 | 84.6 | 7 | 8 | Reactive metabolite, Dose-dependant | 0 | 4 | 0 | 3 | 0 | yes | I/MERCAPTOPURINE/VINBLASTINE CHOLANGITE MVO REACTIVATION_HVB | 1 |  |  | 
CN(C)CCCN1c2ccccc2CCc2ccccc21 [IMIPRAMINE] | 0 | 1 week - 1 year | 0 | 0 | yes |  |  |  |  | Allergic, Reactive metabolite | 0 | 9 | 0 | 13 | 1 | yes | RC/DESPRAMINE CHOLESTASE_PROLONGEE | 0 |  |  | 
O=C1CN(/N=C/c2ccc([N+](=O)[O-])o2)C(=O)N1 [NITROFURANTOIN] | 1 | 2 days - 10 years | 7 | 0 | yes |  |  |  | 2 |  |  |  | 1 |  | 37 | yes | AC_ANTI-ML/-N RC/FURAZOLIDONE/NIFUROXIME CHOLANGITE | 1 | 8 | 0 | Hepatotoxicity (acute) ([10]; Liver): 0%; Hepatotoxicity (mechanism) ([11]; Liver): Allergic; Hepatotoxicity (granulomatous hepatitis) ([12]; Liver): 2; Hepatotoxicity (cytolytic) ([13]; Liver): 9; Hepatotoxicity (choleostasis) ([15]; Liver): 27
CNC(=C[N+](=O)[O-])NCCSCc1ccc(CN(C)C)o1 [RANITIDINE] | 1 | 4 days - 3 months | 0 | 0 | yes | 2 | 18.6 |  | 37 | Allergic, Dose-dependant, Toxic Metabolite | 1 | 12 | 0 | 15 | 1 | yes | AC_ANTI-ML/-N CHOLANGITE | 0 |  |  | Hepatotoxicity (acute) [10]: 0%
